Measurements as given in US20090005375A1, “ACETYL COENZYME A CARBOXYLASE INHIBITORS” (priority 2007, published 2009).

Columns and labels:
Human ACC1 = molecular target: T1, Human ACC1 (Homo sapiens, UniProt Q13085); assay: In vitro enzymatic ACC activity assay (malachite green), ACC1; type: biochemical; details: recombinant His-tagged enzyme, absorbance at 620 nm
T1 construct: made in house; host or cells: SF-9 insect cells (baculovirus, pFAST-BacHTc)
Procedure: (§1) Provided in Example A is an in vitro enzymatic ACC activity assay for activity against ACC. The binding affinity of the test compound to ACC1 or ACC2 is determined by the changes in absorbance (at 620 nm); […]. It should be noted that a variety of other expression systems and hosts are also suitable for the expression of ACC, as would be readily appreciated by one of skill in the art.
Human ACC1 cDNA was amplified from human liver cDNA by polymerase chain reaction using primers; 5′[…]3′ (SEQ ID NO: 1) and 5′[…]3′ (SEQ ID NO: 2). The amplified DNA fragment was digested by restriction enzyme SalI and NotI, and cloned into pFAST-BacHTc (Invitrogen). This plasmid DNA was used for preparation of recombinant vaculovirus with BAC-TO-BAC Baculovirus Expression System (Invitrogen).
SF-9 cells were infected with the vaculovirus and cultured at 27° C. for 3 days. Harvested cells were homogenized in buffer A (25 mM HEPES (pH7.5), 130 mM NaCl, 1 mM EDTA, 25 mM sodium glycerophosphate, 1 mM sodium orthovanadate, 10% glycerol, complete protease inhibitor), and subjected to ultracentrifuge at 185700×g for 50 min at 4° C. ACC1 protein with 6×His-tag at the N-terminal was purified from the supernatant using Ni-NTA Super Flow Gel (QIAGEN). Eluted protein was dialysed against buffer B (50 mM HEPES (pH 7.5), 300 mM NaCl, 10 mM MgCl2, 10 mM tripotassium citrate, 2 mM dithiothreitol) and concentrated using Vivaspin20 ultrafiltration tube (Sartorius).
(§2) Malachite green solution was prepared by mixing 100 mL of solution A (0.12% malachite green in 5NH2SO4), 25 mL of solution B (7.5% ammonium molybdate) and 2 mL of solution C (11% TWEEN-20).
(§3) ACC1 was diluted to 8 μg/mL in reaction buffer (50 mM HEPES pH7.5, 10 mM MgCl2, 10 mM tripotassium citrate, 2 mM DTT, 0.75 mg/mL fatty acid free BSA) and 10 μL diluted enzyme solution was pored into each well of 384-well clear bottom plate. Test compound was diluted in the reaction buffer and 5 μL of the compound solution was added into each well, and the mixture was incubated at 30° C. for 60 minutes. Reaction was initiated by addition of 5 μL substrate solution (50 mM KHCO3, 200 μM ATP, 200 μM acetyl-CoA). After incubation at 30° C. for 20 minutes, reaction was terminated by addition of 5 μL malachite green solution and absorbance at 620 nm was measured.
(§4) Percent activity at each concentration of compound was calculated from the following equation: […]
(§5) Data were subjected to nonlinear regression analysis using GraphPad Prism Software (GraphPad Software Inc.) to obtain IC50 values.

Human ACC2 = molecular target: T2, Human ACC2 (Homo sapiens, UniProt O00763); assay: In vitro enzymatic ACC activity assay (malachite green), ACC2; type: biochemical; details: recombinant His-tagged enzyme, absorbance at 620 nm
T2 construct: made in house; host or cells: SF-9 insect cells (baculovirus, pFAST-BacHTa)
T2 sequence (O00763 117-2458 limits assumed): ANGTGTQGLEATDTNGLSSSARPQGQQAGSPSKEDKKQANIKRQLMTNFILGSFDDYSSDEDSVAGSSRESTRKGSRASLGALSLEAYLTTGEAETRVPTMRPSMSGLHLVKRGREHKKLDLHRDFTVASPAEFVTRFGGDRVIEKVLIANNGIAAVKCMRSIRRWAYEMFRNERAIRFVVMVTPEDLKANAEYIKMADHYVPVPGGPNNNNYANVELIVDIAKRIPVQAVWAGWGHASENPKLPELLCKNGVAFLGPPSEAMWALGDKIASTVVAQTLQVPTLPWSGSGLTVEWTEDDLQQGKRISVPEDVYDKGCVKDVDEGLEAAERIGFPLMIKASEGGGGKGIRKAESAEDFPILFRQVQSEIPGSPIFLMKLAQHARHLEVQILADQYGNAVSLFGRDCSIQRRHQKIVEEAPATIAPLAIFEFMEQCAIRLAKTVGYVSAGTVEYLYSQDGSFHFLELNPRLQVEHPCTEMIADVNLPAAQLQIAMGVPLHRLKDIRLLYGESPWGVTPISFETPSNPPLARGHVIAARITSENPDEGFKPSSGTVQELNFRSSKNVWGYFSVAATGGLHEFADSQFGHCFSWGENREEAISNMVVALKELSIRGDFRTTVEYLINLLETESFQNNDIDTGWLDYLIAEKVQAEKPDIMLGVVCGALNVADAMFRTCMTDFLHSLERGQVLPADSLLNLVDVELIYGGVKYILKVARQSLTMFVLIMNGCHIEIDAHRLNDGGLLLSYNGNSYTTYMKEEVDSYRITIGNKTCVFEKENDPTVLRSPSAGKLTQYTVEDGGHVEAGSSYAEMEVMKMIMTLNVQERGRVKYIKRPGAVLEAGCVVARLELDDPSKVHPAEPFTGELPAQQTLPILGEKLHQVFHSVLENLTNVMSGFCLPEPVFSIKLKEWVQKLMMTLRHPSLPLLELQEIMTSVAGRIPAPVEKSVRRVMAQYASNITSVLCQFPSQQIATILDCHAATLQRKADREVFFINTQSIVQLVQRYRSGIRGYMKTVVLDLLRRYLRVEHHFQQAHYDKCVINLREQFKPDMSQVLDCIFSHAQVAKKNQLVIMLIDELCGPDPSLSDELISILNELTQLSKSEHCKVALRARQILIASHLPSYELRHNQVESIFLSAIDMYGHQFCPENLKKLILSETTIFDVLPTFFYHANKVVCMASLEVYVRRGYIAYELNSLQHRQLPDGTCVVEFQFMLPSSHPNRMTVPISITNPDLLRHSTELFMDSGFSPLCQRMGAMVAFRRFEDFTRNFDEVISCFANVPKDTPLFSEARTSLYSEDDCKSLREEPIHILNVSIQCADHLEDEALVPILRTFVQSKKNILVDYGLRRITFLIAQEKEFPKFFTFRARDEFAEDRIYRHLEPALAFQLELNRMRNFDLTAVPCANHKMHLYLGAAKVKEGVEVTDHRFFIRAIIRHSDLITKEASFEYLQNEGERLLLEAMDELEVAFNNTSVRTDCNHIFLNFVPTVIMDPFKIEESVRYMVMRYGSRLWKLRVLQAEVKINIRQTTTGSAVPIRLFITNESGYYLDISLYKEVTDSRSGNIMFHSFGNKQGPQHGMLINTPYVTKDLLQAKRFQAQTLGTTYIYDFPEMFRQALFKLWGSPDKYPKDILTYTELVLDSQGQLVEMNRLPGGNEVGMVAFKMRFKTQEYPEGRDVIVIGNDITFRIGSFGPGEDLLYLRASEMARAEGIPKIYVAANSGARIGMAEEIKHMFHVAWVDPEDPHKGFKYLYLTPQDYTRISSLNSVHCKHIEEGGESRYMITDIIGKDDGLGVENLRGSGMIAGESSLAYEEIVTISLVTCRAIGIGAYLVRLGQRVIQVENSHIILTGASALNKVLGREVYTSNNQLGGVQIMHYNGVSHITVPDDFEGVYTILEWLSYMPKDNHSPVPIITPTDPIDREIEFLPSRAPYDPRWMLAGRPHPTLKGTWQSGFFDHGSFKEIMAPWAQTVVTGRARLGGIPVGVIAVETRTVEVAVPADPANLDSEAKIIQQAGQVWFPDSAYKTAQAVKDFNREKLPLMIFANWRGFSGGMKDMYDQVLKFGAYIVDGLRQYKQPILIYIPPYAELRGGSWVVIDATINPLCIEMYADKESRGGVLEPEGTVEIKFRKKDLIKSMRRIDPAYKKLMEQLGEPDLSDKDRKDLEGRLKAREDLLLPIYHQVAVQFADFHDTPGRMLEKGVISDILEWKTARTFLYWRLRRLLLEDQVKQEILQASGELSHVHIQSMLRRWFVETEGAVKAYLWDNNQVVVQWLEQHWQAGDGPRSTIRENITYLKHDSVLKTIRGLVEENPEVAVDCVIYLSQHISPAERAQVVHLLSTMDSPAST
Procedure: as §1
Human ACC2 cDNA except coding region for mitochondria localization sequence was amplified from human skeletal muscle cDNA by polymerase chain reaction using primers; 5′[…]3′ (SEQ ID NO: 3) and 5′[…]3′ (SEQ ID NO: 4). The amplified DNA fragment was digested by SalI and AflII, and cloned into pFAST-BacHTa (Invitrogen). Preparation of recombinant vaculovirus, infection of the virus to SF-9 cells and purification of recombinant ACC2 protein with 6×His-tag at the N-terminal were performed in the same method as described above.
as §2, §3
ACC2 was diluted to 6.4 μg/mL in reaction buffer, and the activity was measured by the same method as described for ACC1.
as §4, §5

| Compound | IC50 (Human ACC1) [µM] | IC50 (Human ACC2) [µM] |
| --- | --- | --- |
| CCNC(=O)Nc1sc2ccccc2c1C(=O)N1CCN(S(=O)(=O)c2cccc(OC)c2)CC1 [Example 7, ethyl-3-(3-(4-(3-methoxyphenylsulfonyl)piperazine-1-carbonyl)benzo[b]thiophen-2-yl)urea] | > 50 | < 5 |
| CCNC(=O)Nc1sc2ccccc2c1C(=O)N1CCN(S(=O)(=O)c2cccc(-c3ccnc(C)n3)c2)CC1 [Example 12, ethyl-3-(3-(4-(3-(2-methylpyrimidin-4-yl)phenylsulfonyl)piperazine-1-carbonyl)benzo[b]thiophen-2-yl)urea] | 5 to 50 | < 5 |
| CCNC(=O)Nc1sc2ccccc2c1C(=O)N1CCN(S(=O)(=O)c2ccc3oc(=O)[nH]c3c2)CC1 [Example 32, ethyl-3-(3-(4-(2-oxo-2,3-dihydrobenzo[d]oxazol-5-ylsulfonyl)piperazine-1-carbonyl)benzo[b]thiophen-2-yl)urea] | > 50 | 5 to 50 |
| CCNC(=O)Nc1sc2ccccc2c1C(=O)N1CCN(S(=O)(=O)c2ccc(NC(C)=O)cc2)CC1 [Example 24, N-(4-(4-(2-(3-ethylureido)benzo[b]thiophene-3-carbonyl)piperazin-1-ylsulfonyl)phenyl)acetamide] | < 5 | < 5 |
| CCNC(=O)Nc1sc2ccccc2c1C(=O)N1CCN(S(=O)(=O)c2cccc(NC(C)=O)c2)CC1 [Example 8, N-(3-(4-(2-(3-ethylureido)benzo[b]thiophene-3-carbonyl)piperazin-1-ylsulfonyl)phenyl)acetamide] | 5 to 50 | < 5 |
| CCNC(=O)Nc1sc2ccccc2c1C(=O)N1CCN(S(=O)(=O)c2cccc(-c3csc(C)n3)c2)CC1 [Example 10, ethyl-3-(3-(4-(3-(2-methylthiazol-4-yl)phenylsulfonyl)piperazine-1-carbonyl)benzo[b]thiophen-2-yl)urea] | > 50 | 5 to 50 |
| CCNC(=O)Nc1sc2ccccc2c1C(=O)N1CCN(S(=O)(=O)c2ccc(N3CCOCC3)nc2)CC1 [Example 14, ethyl-3-(3-(4-(6-morpholinopyridin-3-ylsulfonyl)piperazine-1-carbonyl)benzo[b]thiophen-2-yl)urea] | < 5 | < 5 |
| CCNC(=O)Nc1sc2ccccc2c1C(=O)N1CCN(S(=O)(=O)CC(C)C)CC1 [Example 26, ethyl-3-(3-(4-(isobutylsulfonyl)piperazine-1-carbonyl)benzo[b]thiophen-2-yl)urea] | 5 to 50 | 5 to 50 |
| CCNC(=O)Nc1sc2ccccc2c1C(=O)N1CCN(S(=O)(=O)c2ccc3c(c2)NC(=O)C3)CC1 [Example 30, ethyl-3-(3-(4-(2-oxoindolin-6-ylsulfonyl)piperazine-1-carbonyl)benzo[b]thiophen-2-yl)urea] | 5 to 50 | < 5 |
| CCNC(=O)Nc1sc2ccccc2c1C(=O)N1CCN(S(=O)(=O)c2ccc(OC)c(OC)c2)CC1 [Example 23, 1-(3-(4-(3,4-dimethoxyphenylsulfonyl)piperazine-1-carbonyl)benzo[b]thiophen-2-yl)-3-ethylurea] | < 5 | < 5 |
| CCNC(=O)Nc1sc2ccccc2c1C(=O)N1CCN(S(=O)(=O)c2ccc(N3CCCC3=O)cc2)CC1 [Example 22, ethyl-3-(3-(4-(4-(2-oxopyrrolidin-1-yl)phenylsulfonyl)piperazine-1-carbonyl)benzo[b]thiophen-2-yl)urea] | > 50 | < 5 |

Next, values leading:

| IC50 (Human ACC1) [µM] | IC50 (Human ACC2) [µM] | Compound |
| --- | --- | --- |
| > 50 | > 50 | CCNC(=O)Nc1sc2ccccc2c1C(=O)N1CCN(S(C)(=O)=O)CC1 [Example 28, ethyl-3-(3-(4-(methylsulfonyl)piperazine-1-carbonyl)benzo[b]thiophen-2-yl)urea] |
| < 5 | < 5 | CCNC(=O)Nc1sc2ccccc2c1C(=O)N1CCN(S(=O)(=O)c2ccc3[nH]c(=O)[nH]c3c2)CC1 [Example 31, ethyl-3-(3-(4-(2-oxo-2,3-dihydro-1H-benzo[d]imidazol-5-ylsulfonyl)piperazine-1-carbonyl)benzo[b]thiophen-2-yl)urea] |
| 5 to 50 | 5 to 50 | CCNC(=O)Nc1sc2ccccc2c1C(=O)N1CCN(S(=O)(=O)c2cccc(-c3nnc(C)o3)c2)CC1 [Example 11, ethyl-3-(3-(4-(3-(5-methyl-1,3,4-oxadiazol-2-yl)phenylsulfonyl)piperazine-1-carbonyl)benzo[b]thiophen-2-yl)urea] |
| > 50 | 5 to 50 | CCNC(=O)Nc1sc2ccccc2c1C(=O)N1CCC(Sc2cccc(OC(F)(F)F)c2)CC1 [Example 40, ethyl-3-(3-(4-(3-(trifluoromethoxy)phenylthio)piperidine-1-carbonyl)benzo[b]thiophen-2-yl)urea] |
| > 50 | < 5 | CCNC(=O)Nc1sc2ccccc2c1C(=O)N1CCC(S(=O)(=O)c2cccc(OC)c2)CC1 [Example 37, ethyl-3-(3-(4-(3-methoxyphenylsulfonyl)piperidine-1-carbonyl)benzo[b]thiophen-2-yl)urea] |
| 5 to 50 | 5 to 50 | CCNC(=O)Nc1sc2ccccc2c1C(=O)N1CCN(S(=O)(=O)CCC(=O)N(CC)CC)CC1 [Example 34, N,N-diethyl-3-(4-(2-(3-ethylureido)benzo[b]thiophene-3-carbonyl)piperazin-1-ylsulfonyl)propanamide] |
| 5 to 50 | 5 to 50 | CCNC(=O)Nc1sc2ccccc2c1C(=O)N1CCN(S(=O)(=O)C2CCS(=O)(=O)C2)CC1 (centres unmarked) [Example 17, ethyl-3-(3-(4-(1,1-dioxotetrahydrothiophen-3-ylsulfonyl)piperazine-1-carbonyl)benzo[b]thiophen-2-yl)urea] |
| > 50 | 5 to 50 | CCNC(=O)Nc1sc2ccccc2c1C(=O)N1CCC([S+]([O-])c2cccc(OC(F)(F)F)c2)CC1 (centres unmarked) [Example 42, ethyl-3-(3-(4-(3-(trifluoromethoxy)phenylsulfinyl)piperidine-1-carbonyl)benzo[b]thiophen-2-yl)urea] |
| > 50 | > 50 | CCNC(=O)Nc1sc2ccccc2c1C(=O)N1CCN(S(=O)(=O)c2ccccc2C#N)CC1 [Example 2, 1-(3-(4-(2-cyanophenylsulfonyl)piperazine-1-carbonyl)benzo[b]thiophen-2-yl)-3-ethylurea] |
| > 50 | 5 to 50 | CCNC(=O)Nc1sc2ccccc2c1C(=O)N1CCN(S(=O)(=O)c2ccc3c(c2)OCO3)CC1 [Example 4, 1-(3-(4-(benzo[d][1,3]dioxol-5-ylsulfonyl)piperazine-1-carbonyl)benzo[b]thiophen-2-yl)-3-ethylurea] |
| > 50 | > 50 | CCNC(=O)Nc1sc2ccccc2c1C(=O)N1CCN(S(=O)(=O)c2ccccc2)CC1 [Example 3, ethyl-3-(3-(4-(phenylsulfonyl)piperazine-1-carbonyl)benzo[b]thiophen-2-yl)urea] |
| > 50 | > 50 | CCNC(=O)Nc1sc2ccccc2c1C(=O)N1CCN(S(=O)(=O)c2cccc([N+](=O)[O-])c2)CC1 [Example 16, ethyl-3-(3-(4-(3-nitrophenylsulfonyl)piperazine-1-carbonyl)benzo[b]thiophen-2-yl)urea] |
| > 50 | 5 to 50 | CCNC(=O)Nc1sc2ccccc2c1C(=O)N1CCN(S(=O)(=O)c2ccc(S(C)(=O)=O)cc2)CC1 [Example 29, ethyl-3-(3-(4-(4-(methylsulfonyl)phenylsulfonyl)piperazine-1-carbonyl)benzo[b]thiophen-2-yl)urea] |
| < 5 | < 5 | CCNC(=O)Nc1sc2ccccc2c1C(=O)N1CCN(S(=O)(=O)c2ccc3ncsc3c2)CC1 [Example 21, 1-(3-(4-(benzo[d]thiazol-6-ylsulfonyl)piperazine-1-carbonyl)benzo[b]thiophen-2-yl)-3-ethylurea] |
